Source: US7935706B2, “Nitrogen-containing heterocycle derivatives substituted with cyclic group” (Shionogi & Co., Ltd., priority 2006, dated 2011)
Like-named read-outs stand apart in the source and are kept apart here.

Tests used:
[1] = target: T1, NMDA receptor (NR1 subunit and NR2B subunit) (Mus musculus, UniProt P35438+Q01097); test: Measurement of expression of NMDA receptor and Ca ion influx amount (glutamic acid/glycine-induced, HEK293 cell co-expressing NR1 and NR2B subunits, Fluo-3/AM); format: cell-based
T1 construct: expressed in transfected cells; host or cells: HEK293 cells, transient transfection with pcDNA3.1 plasmids
T1 sequence (Q01097 27-1482, other chains not shown): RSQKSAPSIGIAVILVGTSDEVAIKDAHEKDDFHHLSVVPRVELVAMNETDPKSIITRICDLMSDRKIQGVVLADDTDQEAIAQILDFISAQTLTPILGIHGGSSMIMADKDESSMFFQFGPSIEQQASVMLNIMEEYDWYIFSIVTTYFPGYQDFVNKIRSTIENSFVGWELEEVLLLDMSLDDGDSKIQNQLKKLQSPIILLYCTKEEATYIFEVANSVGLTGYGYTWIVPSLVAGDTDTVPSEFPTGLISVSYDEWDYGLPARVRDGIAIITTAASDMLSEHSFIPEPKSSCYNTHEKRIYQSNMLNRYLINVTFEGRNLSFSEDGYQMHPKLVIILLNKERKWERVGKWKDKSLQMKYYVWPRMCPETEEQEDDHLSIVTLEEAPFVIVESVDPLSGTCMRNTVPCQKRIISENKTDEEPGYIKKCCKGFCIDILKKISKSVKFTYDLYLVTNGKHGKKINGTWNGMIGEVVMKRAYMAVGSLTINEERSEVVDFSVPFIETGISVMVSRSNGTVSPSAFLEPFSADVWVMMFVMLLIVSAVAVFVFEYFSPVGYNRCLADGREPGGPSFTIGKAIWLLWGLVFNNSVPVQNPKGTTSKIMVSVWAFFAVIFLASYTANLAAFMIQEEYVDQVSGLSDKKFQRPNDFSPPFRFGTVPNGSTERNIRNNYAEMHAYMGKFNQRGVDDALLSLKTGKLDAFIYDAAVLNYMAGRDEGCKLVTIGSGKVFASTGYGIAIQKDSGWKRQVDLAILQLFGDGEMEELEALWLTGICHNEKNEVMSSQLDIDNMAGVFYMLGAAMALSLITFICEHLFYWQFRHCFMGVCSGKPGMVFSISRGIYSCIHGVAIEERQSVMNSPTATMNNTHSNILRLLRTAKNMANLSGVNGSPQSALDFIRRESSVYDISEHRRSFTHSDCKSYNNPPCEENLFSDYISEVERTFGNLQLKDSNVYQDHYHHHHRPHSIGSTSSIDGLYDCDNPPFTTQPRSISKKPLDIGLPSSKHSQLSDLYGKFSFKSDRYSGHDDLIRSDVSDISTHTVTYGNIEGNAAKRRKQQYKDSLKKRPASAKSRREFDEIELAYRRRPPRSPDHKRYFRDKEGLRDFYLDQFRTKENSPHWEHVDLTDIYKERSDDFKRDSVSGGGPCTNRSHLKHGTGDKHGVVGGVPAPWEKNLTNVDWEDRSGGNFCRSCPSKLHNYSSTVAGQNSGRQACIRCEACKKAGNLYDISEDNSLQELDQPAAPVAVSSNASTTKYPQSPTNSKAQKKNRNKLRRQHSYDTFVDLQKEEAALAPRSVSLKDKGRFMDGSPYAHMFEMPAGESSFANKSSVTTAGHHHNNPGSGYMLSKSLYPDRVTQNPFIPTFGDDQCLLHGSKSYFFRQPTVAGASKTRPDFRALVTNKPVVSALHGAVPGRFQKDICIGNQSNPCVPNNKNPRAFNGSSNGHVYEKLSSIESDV
Method: Measurement of Expression of NMDA Receptor and Ca Ion Influx Amount
A complementary DNA (cDNA) of a mouse NMDA receptor subunit was transiently introduced into a HEK293 cell and, after 1 day from introduction, change in a glutamic acid/glycine-induced intracelluar Ca amount was measured using a Ca ion reactive fluorescent coloring matter.
The HEK293 cell was cultured, and passaged using a modified Dulbecco's Eagle medium (DMEM, low glucose).
The HEK293 cell (20,000/well) was seeded on a 96-well plate, a NR1 subunit and a NR2B subunit of the NMDA receptor incorporated into the pcDNA3.1 plasmid were transiently introduced into a cell, and the subunits were co-expressed. An introduction amount of a DNA was 0.025 μg in the case of the NR1 subunit, and 0.075 μg in the case of NR2B subunit per well. For the cell after introduction, cell death was inhibited using 50 μM of the NMDA receptor antagonist MK-801.
For adjusting a test compound and washing a cell, Krebs/Ringer/Hepes buffer (KRH, Ca: 5 mM) was used.
After 1 day from introduction, the NMDA receptor antagonist MK-801 was washed out using the KRH buffer, and a Ca ion indication fluorescent coloring matter Fluo-3/AM was made to be taken into the cell. Ca ion influx was induced with 20 μM glutamic acid/2 μM glycine. Change in a fluorescent amount due to Ca ion influx into the cell was measured at excitation of 480 nm using a fluorescent imaging system FDSS 3000.
From a measured value of the test compound, a Ca ion influx inhibition rate (%) was obtained by the following equation, and a dose at which influx is inhibited 50% (IC50) was calculated.
Ca ion influx inhibition rate(%)=100−[(fluorescent amount in the presence of test compound−background fluorescent amount)/(total fluorescent amount−background fluorescent)]×100

[2] = target: T2, NR1/NR2B receptor (Rattus norvegicus, UniProt P35439+Q00960); test: Test of binding with NMDA receptor (NR1/NR2B receptor): competition with [3H]-Ifenprodil on rat cerebral cortex membrane specimen
T2 construct: from tissue; host or cells: rat cerebral cortex membranes (male Slc: Wistar rat)
T2 sequence (Q00960 27-1482, other chains not shown): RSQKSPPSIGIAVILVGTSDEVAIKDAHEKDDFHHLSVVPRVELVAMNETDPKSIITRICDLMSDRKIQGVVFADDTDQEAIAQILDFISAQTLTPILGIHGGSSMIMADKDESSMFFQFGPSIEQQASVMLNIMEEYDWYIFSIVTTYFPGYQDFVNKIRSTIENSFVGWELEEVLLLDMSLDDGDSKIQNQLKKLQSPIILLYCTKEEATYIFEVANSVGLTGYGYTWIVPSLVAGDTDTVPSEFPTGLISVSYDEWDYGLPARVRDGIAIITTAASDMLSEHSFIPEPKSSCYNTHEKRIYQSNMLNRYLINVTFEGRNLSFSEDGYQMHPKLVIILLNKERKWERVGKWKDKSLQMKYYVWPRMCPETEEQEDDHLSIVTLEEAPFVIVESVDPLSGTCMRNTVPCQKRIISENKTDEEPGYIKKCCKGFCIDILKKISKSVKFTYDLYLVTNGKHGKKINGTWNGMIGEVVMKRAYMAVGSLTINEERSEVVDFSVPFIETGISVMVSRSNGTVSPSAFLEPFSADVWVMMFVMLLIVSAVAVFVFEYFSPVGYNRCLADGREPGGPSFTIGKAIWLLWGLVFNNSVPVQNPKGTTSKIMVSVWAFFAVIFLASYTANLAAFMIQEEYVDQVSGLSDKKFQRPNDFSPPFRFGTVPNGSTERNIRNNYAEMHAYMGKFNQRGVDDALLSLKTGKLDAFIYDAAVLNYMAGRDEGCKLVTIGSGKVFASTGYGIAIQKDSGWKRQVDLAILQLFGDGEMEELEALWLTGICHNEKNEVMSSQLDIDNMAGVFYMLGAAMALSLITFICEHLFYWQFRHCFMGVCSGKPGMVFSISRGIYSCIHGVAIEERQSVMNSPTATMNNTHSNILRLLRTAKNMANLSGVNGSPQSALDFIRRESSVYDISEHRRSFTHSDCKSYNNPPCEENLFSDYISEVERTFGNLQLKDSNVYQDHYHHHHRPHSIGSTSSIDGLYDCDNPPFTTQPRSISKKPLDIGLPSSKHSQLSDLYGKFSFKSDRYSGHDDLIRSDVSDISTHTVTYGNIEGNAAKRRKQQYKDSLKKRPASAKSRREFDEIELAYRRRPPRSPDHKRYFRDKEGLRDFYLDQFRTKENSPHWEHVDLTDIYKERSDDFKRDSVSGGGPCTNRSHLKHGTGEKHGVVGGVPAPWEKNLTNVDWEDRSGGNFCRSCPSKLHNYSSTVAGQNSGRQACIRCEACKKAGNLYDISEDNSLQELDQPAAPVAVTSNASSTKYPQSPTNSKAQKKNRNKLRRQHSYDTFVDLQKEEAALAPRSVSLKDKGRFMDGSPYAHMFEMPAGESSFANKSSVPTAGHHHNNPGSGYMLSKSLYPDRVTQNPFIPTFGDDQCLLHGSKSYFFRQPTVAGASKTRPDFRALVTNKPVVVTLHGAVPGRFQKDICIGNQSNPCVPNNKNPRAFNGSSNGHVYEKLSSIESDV
Method: Test of Binding with NMDR Receptor (NR1/NR2B Receptor)
Using Ifenprodil which is an antagonist specific for a NR1/NR2B subtype receptor as a ligand, an experiment of competition between a receptor and a test compound was performed.
Using a male Slc: Wistar rat as an animal, a brain was isolated after decapitation, and a cerebral cortex was fractionated. The cerebral cortex was homogenized with a 20-fold amount of an ice-cooled 50 mM Tris/HCl buffer (pH 7.4), and the homogenate was centrifuged at 4° C. and 27,500×g for 10 minutes. The resulting precipitate was suspended in the same buffer, and this was again centrifuged. This operation was repeated for three times, the resulting precipitate was suspended in a buffer, and this was stored at −80° C. Immediately before an experiment, the frozen suspension was thawed at room temperature, this was centrifuged at 4° C. and 27,500×g for 10 minutes, and the resulting precipitate was suspended in a buffer. Further, the suspension was diluted 10-fold with a buffer, and this was used as a membrane specimen in an experiment. In a binding experiment, to 470 μl of the membrane specimen were added […] of each of test compounds having different concentrations, 10 μl of a labeled ligand [^3H]-Ifenprodil and 10 μl GBR-12909, followed by incubation at an ice temperature for 120 minutes. A concentration of [^3H]-Ifenprodil of the labeled ligand was finally 5 nM, and a concentration of GBR-12909 was finally 3 μM. For measuring a total binding amount, DMSO as a solvent was used and, for measuring a non-specific binding amount, 100 μM Ifenprodil was used. GBR-12909 was added in order to block binding of [^3H]-Ifenprodil to non-polyamine-sensitive site. After incubation, a bound formand a free foramwere separated using Whatman GF/C filter (manufactured by Whatman), and the filter was washed with 2.5 ml ice-cooled buffer four times. The filter was immersed in liquid scintillation (Cryasol I, manufactured by Nacalai tesque), and radioactivity (dpm) was measured with a liquid scintillation counter. From a measured value, a binding inhibition rate (%) was obtained by the following equation, and a dose at which binding is inhibited 50% (IC50) was calculated. A formula of GBR-12909 (vanoxerine) is shown below.
Binding inhibition rate(%)=100−[(binding amount in the presence of test compound−non-specific binding amount)/(total binding amount−non-specific binding amount)]×100

[3] = Ca ion influx induced with 20 μM glutamic acid/2 μM glycine, HEK293 cell with mouse NR1/NR2B, read-out: Ca2+ IC50
[4] = same binding test, read-out: IC50 (binding with NR1/NR2B receptor)
[5] = same Ca ion influx test, read-out: IC50 (Ca ion influx inhibition)
[6] = [3H]-Ifenprodil 5 nM, GBR-12909 3 μM, rat cerebral cortex membranes, ice temperature 120 minutes, read-out: NR2B (IC50 μM)

Row | IC50 [1, 3] [nM] | IC50 [2, 4] [µM] | IC50 [1, 5] [nM] | IC50 [2, 6] [µM] | Structure (SMILES)
1 | 9 |  |  |  | O=C(Nc1ccc2[nH]c(=O)oc2c1)C(=O)N1CCN(c2ccc(F)c(Cl)c2)CC1 [Compound I-110]
2 | 39 |  |  |  | O=C(Nc1cnc2[nH]c(=O)oc2c1)C(=O)N1CCN(c2ccc(C(F)(F)F)cc2)CC1 [Compound I-74]
3 |  | ≤ 0.1 | ≤ 100 |  | O=C(Nc1ccc2[nH]c(=O)oc2c1)C(=O)N1CCN(c2ccc(OC(F)F)cc2)CC1 [Compound I-233]
4 |  |  |  | 0.081 | O=C1Cc2cc(NC(=O)C(=O)N3CCN(c4ccc(Cl)c(F)c4)CC3)ccc2N1 [Compound I-200]
5 |  | ≤ 0.1 | ≤ 100 |  | O=C(Nc1ccc2[nH]c(=O)oc2c1)C(=O)N1CCN(c2ccc(OC(F)(F)F)cc2)CC1 [Compound I-211]
6 | 37 |  |  |  | O=C(C=C1CCN(c2ccc(F)cc2)CC1)Nc1ccc2[nH]c(=O)oc2c1 [Compound I-33]
7 | 7 |  |  | 0.025 | O=C(Nc1ccc2[nH]c(=O)oc2c1)C(=O)N1CCN(c2ccc(C(F)(F)F)cc2)CC1 [Compound I-55]
8 | 13 |  |  | 0.062 | O=C(C=C1CCN(c2ccc(C(F)(F)F)c(F)c2)CC1)Nc1ccc2[nH]c(=O)oc2c1 [Compound I-180]
9 |  | ≤ 0.1 | ≤ 100 |  | C[C@@H]1CN(c2ccc(C(F)(F)F)cn2)CCN1C(=O)C(=O)Nc1ccc2[nH]c(=O)oc2c1 [Compound I-227]
10 | 24 |  |  |  | O=C(NCC1CCN(c2ccc(OC(F)(F)F)cc2)CC1)c1ccc2[nH]c(=O)oc2c1 [Compound I-122]
11 | 87 |  |  |  | O=C(Nc1ccc2[nH]c(=O)sc2c1)C(=O)N1CCN(c2ccc(F)cc2)CC1 [Compound I-89]
12 |  | ≤ 0.1 | ≤ 100 |  | C[C@@H]1CN(C(=O)C(=O)Nc2ccc3[nH]c(=O)oc3c2)CCN1c1ccc(Cl)c(F)c1 [Compound I-207]
13 | 48 |  |  |  | O=C(Nc1ccc2[nH]c(=O)oc2c1)C(=O)C1CCN(c2ccc(C(F)(F)F)cc2)CC1 [Compound I-26]
14 |  |  |  | 0.074 | O=C1Cc2cc(NC(=O)C(=O)N3CCN(c4ccc(C(F)(F)F)c(F)c4)CC3)ccc2N1 [Compound I-201]
15 | 69 |  |  |  | O=C(NCC1CCN(c2ccc(C(F)(F)F)cc2)CC1)c1ccc2[nH]c(=O)oc2c1 [Compound I-11]
16 | 9 |  |  | 0.017 | O=C(C=C1CCN(c2ccc(C(F)(F)F)cn2)CC1)Nc1ccc2[nH]c(=O)oc2c1 [Compound I-43]
17 | 48 |  |  |  | O=C(CC1CCN(c2ccc(C(F)(F)F)cc2)CC1)Nc1ccc2[nH]c(=O)oc2c1 [Compound I-8]
18 | 10 |  |  | 0.074 | O=C(Nc1ccc2[nH]c(=O)oc2c1)C(=O)N1CCCN(c2ccc(Cl)cc2)CC1 [Compound I-100]
19 | 8 |  |  | 0.015 | O=C(Nc1ccc2[nH]c(=O)oc2c1)C(=O)N1CCN(c2ccc(Cl)cc2)CC1 [Compound I-73]
20 | 53 |  |  |  | O=C(Nc1cnc2[nH]c(=O)oc2c1)C(=O)N1CCCN(c2ccc(Cl)c(F)c2)CC1 [Compound I-155]
21 | 44 |  |  |  | O=C(NCC1CCN(c2ccc(Cl)c(Cl)c2)CC1)c1ccc2[nH]c(=O)oc2c1 [Compound I-138]
22 |  | ≤ 0.1 | ≤ 100 |  | C[C@@H]1CN(C(=O)C(=O)Nc2ccc3[nH]c(=O)oc3c2)CCN1c1ccc(Cl)cn1 [Compound I-228]
23 | 25 |  |  | 0.04 | O=C(Nc1ccc2[nH]c(=O)oc2c1)NC1CCN(c2ccc(C(F)(F)F)cc2)CC1 [Compound I-23]
24 |  | ≤ 0.1 | ≤ 100 |  | O=C(NCCC1CCN(c2ccc(OC(F)(F)F)cc2)CC1)c1ccc(=O)[nH]c1 [Compound I-230]
25 | 1 |  |  | 0.016 | O=C(Nc1ccc2[nH]c(=O)oc2c1)C(=O)N1CCN(c2ccc(Cl)c(Cl)c2)CC1 [Compound I-104]
